What was measured:
[1] = system: pyruvate dehydrogenase enzyme (PDH); assay: Increase in proportion of active form of pyruvate dehydrogenase (PDHa/PDHt) in hearts of fat-fed rats in vivo; conditions: fat-fed rat heart
Experimental: (2) increase the proportion of the active form of the enzyme pyruvate dehydrogenase (PDH) in organs of animals (e.g., rat heart) in vivo; and The ability of the compounds of this invention to increase the proportion of the active form of the pyruvate dehydrogenase enzyme has been measured in the following test: Rats fed on a high fat diet as in the previous test, are treated either with placebo or with the compound of formula (I) or (II) by sub-cutaneous or intravenous injection or by oral administration. After 11/2 hours the rat hearts are removed and homogenized under conditions which minimize changes in the proportion of the pyruvate dehydrogenase enzyme (PDH) which is present in the active form, as described by Whitehouse and Randle, Biochem, J., 134, 651 (1973). The total amount of the enzyme present (PDHt) and the amount which is present in the active form (PDHa) are assessed by a method similar to that described by Taylor et al., J. Biol. Chem., 248, 73 (1973). The fat-feeding process is found to depress the ratio […] from a normal value of about 0.7 to a value in the range from 0.1 to 0.3. Treatment of fat-fed rats with the compounds of formula (I) or (II) parenterally increases this ratio in a dose-dependent manner. The increase in […] ration affected by certain of the compounds when administered by subcutaneous infection at the dosage indicated is shown in the following table: […]

[2] = system: diaphragm tissue from fat-fed rats (pyruvate oxidation); assay: Pyruvate oxidation by diaphragm tissue from fat-fed rats in vitro (carbon-14 from labelled pyruvate into carbon dioxide); format: cell-based; conditions: fat-fed rat diaphragm, read-out: % Stimulation (pyruvate oxidation); for activation at 500 µM: concentration 0.5 m. mol.; for activation at 2000 µM: concentration 2 m. mol.; for activation at 1000 µM: concentration 1 m. mol.
Experimental: (1) increase the oxidation of glucose and/or pyruvate by isolated rat muscle preparations in vitro; The compounds of formulae (I) and (II) have been tested for their ability to increase the oxidation of glucose and/or pyruvate as follows: Diaphragm tissue is obtained from rats fed on a high fat diet similar to `Diet B` described by Zaragoza and Felber, Horm. Metab. Res., 2, 323 (1970). Pyruvate oxidation by such tissue is assessed by measurement of the rate of incorporation of carbon-14 from carbon-14-labelled pyruvate into carbon dioxide in vitro, as described by Bringold, Eur. J. Biochem., 26, 360 (1972). The rate of pyruvate oxidation is depressed by 50-75% compared with that by diaphragm tissue from rats fed on a normal diet. When the compounds of the invention are added to the medium, they are found to stimulate pyruvate oxidation by diaphragm tissue from fat-fed rats in a dose dependent manner.

[3] = 0.6 mmol/kg subcutaneous, placebo 0.12

## NC(=O)C(N)c1ccc2c(c1)CCO2 (racemic) [Example 6, DL-α-Amino-2,3-dihydro-5-benzo(b)furanylacetamide]
[1]; [3]
  PDHa/PDHt ratio: 0.46
[2]
  activation at 500 µM: 29%

## O=C(O)C(=O)c1ccc2oc(-c3ccccc3)cc2c1 [Example 11, 2-Phenyl-5-benzo(b)furanyl Glyoxylic Acid]
[1]; 0.3 mmol/kg subcutaneous, placebo 0.20
  PDHa/PDHt ratio: 0.26
[2]
  activation at 2000 µM: 99%

## O=C(O)C(=O)c1ccc2c(c1)CCCO2 [Example 4, 6-Chromanylglyoxylic Acid]
[2]
  activation at 500 µM: 69%

## NC(=O)C(N)c1ccc2c(c1)CCS2 (racemic) [Example 15, DL-2-[2,3-Dihydro-5-benzo(b)thienyl]glycinamide]
[2]
  activation at 2000 µM: 11%

## COCCNC(=O)C(N)c1ccc2c(c1)CCO2.Cl (racemic) [Example 7, DL-N-(2-Methoxyethyl)-α-amino-2,3-dihydro-5-benzo(b)furanylacetamide Hydrochloride]
[1]; [3]
  PDHa/PDHt ratio: 0.47
[2]
  activation at 500 µM: 23%

## NC(C(=O)O)c1ccc2c(c1)CCS2 (racemic) [Example 13, DL-2-[2,3-Dihydro-5-benzo(b)thienyl]glycine]
[2]
  activation at 500 µM: 21%

## NC(=O)C(N)c1ccc2occc2c1 (racemic) [Example 10, DL-2-[5-Benzo(b)furanyl]glycinamide]
[2]
  activation at 500 µM: 46%

## Cc1cc2cc(C(=O)C(=O)O)ccc2o1 [Example 12, 2-Methyl-5-benzo(b)furanylglyoxylic Acid]
[1]; 0.3 mmol/kg subcutaneous, placebo 0.12
  PDHa/PDHt ratio: 0.36
[2]
  activation at 500 µM: 58%

## O=C(O)C(=O)c1ccc2occc2c1 [Example 8, 5-Benzo(b)furanylglyoxlic Acid]
[2]
  activation at 500 µM: 95%

## O=C(O)C(=O)c1ccc2c(c1)CCS2 [Example 2, 2,3-Dihydro-5-benzo(b)thienylglyoxylic Acid]
[1]; 1.2 mmol/kg subcutaneous, placebo 0.27
  PDHa/PDHt ratio: 0.48
[2]
  activation at 1000 µM: 105%

## O=C(O)C(=O)c1ccc2c(c1)CCO2 [Example 3, 2,3-Dihydro-5-benzo(b)furanylglyoxylic Acid]
[1]; 0.3 mmol/kg subcutaneous, placebo 0.11
  PDHa/PDHt ratio: 0.21
[2]
  activation at 1000 µM: 128%

## NC(C(=O)O)c1ccc2occc2c1 (racemic) [Example 9, DL-2-[5-Benzo(b)furanyl]glycine]
[2]
  activation at 500 µM: 42%
